ChEMBL document CHEMBL1141566, “Synthesis and antitumor evaluation of bis aza-anthracene-9,10-diones and bis aza-anthrapyrazole-6-ones” (2008)

Tests used:
HT-29 = assay: Cytotoxicity against human HT29 cells after 72 hrs; type: functional; conditions: HT-29, 72 h
[1] = Ratio of Kapp for synthetic poly(dA-dT)]2 oligonucleotide to Kapp for synthetic poly(dG-dC)]2 oligonucleotide

Compound | GI50 (HT-29) | LC50 (concentration killing 50% of cells) (HT-29) | TGI (HT-29) | Ratio [1]
CN(C)CCCn1nc2c3c(c(NCCCN(C)CCCNc4ccc5c6c(nn5CCCN(C)C)-c5ccncc5C(=O)c46)ccc31)C(=O)c1cnccc1-2 | 40 µM | > 100 µM | > 100 µM | 
CN(C)CCNc1ccc(NCCCN(C)CCCNc2ccc(NCCN(C)C)c3c2C(=O)c2ccncc2C3=O)c2c1C(=O)c1cnccc1C2=O | > 100 µM |  |  | 7.7
